Measurements taken from patent US20160280743A1, “BACTERIAL MUTANTS AND METHODS OF USE” (priority 2015, published 2016).
Converted amounts (≈) assume the structure as drawn. Where two headings read alike, the source gives them in different places.

Experiments:
[1] = system: P. aeruginosa PAO1Δ3 (Δ3); conditions: P. aeruginosa Δ3 without pore; 0.1 mM IPTG; LB, 37° C., 16 h
Protocol: (§1) Susceptibilities of E. coli and P. aeruginosa cells to different classes of antibiotics were determined by two-fold broth dilution method [1] with following modifications. Cells were grown in Luria-Bertani (LB) broth (tryptone 10 g/L, yeast extract 5 g/L and NaCl 5 g/L) with appropriate selection markers as needed, at 37° C. with shaking at 200 rpm. When needed, at OD600˜0.3, either L-arabinose (final concentration 0.1%) or IPTG (final concentration 0.1 mM) were added to induce the expression of the pore and cells were further incubated until OD600 reached 1.0. MICs of various antimicrobial agents were measured in 96-well micro-titer plates. For this purpose, exponentially growing cells were inoculated at a density of 10^5 cells/ml into wells containing LB medium in the presence of two-fold increasing concentrations of drugs under investigation at constant inducer concentration of 0.1% arabinose for E. coli or 0.1 mM IPTG for P. aeruginosa strains. Cell growth was determined visually or using Spark 10M microplate reader (Tecan) after incubation of the micro-titer plates at 37° C. for 16 h.
(§2) For this purpose, induced cells were dispensed into 96-well microplates with LB medium containing two-fold dilutions of an antibiotic of interest and a respective concentration of an inducer.

[2] = system: P. aeruginosa PAO1; assay: microbe, parasite or virus in culture; conditions: Pseudomonas aeruginosa
Protocol: as §1, §2

[3] = system: E. coli WT-Pore (GKCW101, FhuAΔC/Δ4L pore); assay: microbe, parasite or virus in culture; conditions: Escherichia coli, 16 h, read-out: MIC BW 25113 (WT) Pore
Protocol: as §1, §2

[4] = system: P. aeruginosa Δ3-Pore (GKCW116, FhuAΔC/Δ4L pore); assay: MIC, two-fold broth dilution, P. aeruginosa Δ3-Pore; conditions: for MIC Δ3 Pore: P. aeruginosa Δ3-Pore, 0.1 mM IPTG, LB, 37° C., 16 h
Protocol: as §1, §2

[5] = system: P. aeruginosa PAO1, PAO1-Pore, Δ3, Δ3-Pore cells; assay: Azithromycin uptake into P. aeruginosa cells by LC-MS; conditions: 5 μM; 0.1 mM IPTG; LC-MS (FIG. 5C)
Protocol: For LC-MS analyses, P. aeruginosa cells were grown to stationary phase in 50 mM MOPS (pH 7.2) M9 minimal medium supplemented with 1% glycerol and trace ions at 37° C. Stationary phase cells were subcultured 1:100 for 16 hours in the same fresh medium at 37° C. After 16 hours, cultures were induced with 0.1 mM IPTG for 4 hours at 37° C. Cells were collected by centrifugation at room temperature and resuspended in PMG buffer at one-tenth the original culture volume. […] At appropriate time points, 100 μl of cells were removed and collected onto filter plates using a HTS Vacuum Manifold (EMD Millipore). Filters were dried overnight and extracted in a two-step process using 1) 800 μl of 100% HPLC grade methanol and 2) 200 μl of 80% HPLC methanol: 20% ultrapure water. […] For HPLC, two mobile phases (A—100% water, B—100% acetonitrile; both with 0.1% formic acid) were used with a step gradient of 20, 50 and 100% of B for 1, 4, and 11 min, respectively.

[6] = system: E. coli WT, WT-Pore, ΔTolC, ΔTolC-Pore; type: cell-based, Escherichia coli; conditions: E. coli
[7] = system: E. coli BW 25113 (WT); assay: microbe, parasite or virus in culture; conditions: Escherichia coli, 16 h, read-out: MIC BW 25113 (WT) —
Protocol: as §1, §2

[8] = system: P. aeruginosa PAO1, PAO1-Pore, Δ3, Δ3-Pore; assay: Fold MIC change between P. aeruginosa strains (OM barrier, efflux); type: cell-based, Pseudomonas aeruginosa; conditions: for Fold MIC change, Efflux, PAO1-Pore/Δ3-Pore / Fold MIC change, Efflux, PAO1/Δ3 / Fold MIC change, OM barrier, PAO1/PAO1-Pore / Fold MIC change, OM barrier, Δ3/Δ3-Pore: P. aeruginosa
[9] = system: E. coli ΔTolC-Pore (GKCW103, FhuAΔC/Δ4L pore); conditions: 0.1% arabinose, LB, 37° C., 16 h
Protocol: as §1, §2

[10] = system: E. coli GD102 (ΔTolC); conditions: E. coli ΔTolC without pore; 0.1% arabinose; LB, 37° C., 16 h
Protocol: as §1, §2

[11] = system: E. coli WT-Pore (GKCW101, FhuAΔC/Δ4L pore); conditions: 0.1% arabinose, LB, 37° C., 16 h
Protocol: as §1, §2

[12] = system: E. coli BW 25113 (WT); conditions: E. coli WT without pore; 0.1% arabinose; LB, 37° C., 16 h
Protocol: as §1, §2

[13] = system: P. aeruginosa PAO1; conditions: P. aeruginosa PAO1 without pore; 0.1 mM IPTG; LB, 37° C., 16 h
Protocol: as §1, §2

[14] = system: P. aeruginosa PAO1-Pore (GKCW115, FhuAΔC/Δ4L pore); assay: MIC, two-fold broth dilution, P. aeruginosa PAO1-Pore; conditions: P. aeruginosa PAO1-Pore; 0.1 mM IPTG; LB, 37° C., 16 h
Protocol: as §1, §2

Compound	MIC Δ3 — [1] [µg/mL]	MIC Δ3 Pore [4] [µg/mL]	Fold MIC change, Efflux, WT-Pore/ΔTolC-Pore [6] [fold]	Fold MIC change, Efflux, WT/ΔTolC [6]	Fold MIC change, OM barrier, WT/WT-Pore [6]	Fold MIC change, OM barrier, ΔTolC/ΔTolC-Pore [6] [fold]	Fold MIC change, Efflux, PAO1-Pore/Δ3-Pore [8] [fold]	Fold MIC change, Efflux, PAO1/Δ3 [8]	Fold MIC change, OM barrier, PAO1/PAO1-Pore [8]	Fold MIC change, OM barrier, Δ3/Δ3-Pore [8] [fold]	MIC GD102 (ΔTolC) Pore [9] [µg/mL]	MIC GD102 (ΔTolC) — [10] [µg/mL]	MIC BW 25113 (WT) Pore [11] [µg/mL]	MIC BW 25113 (WT) — [12] [µg/mL]	also measured
CC[C@H]1OC(=O)[C@H](C)[C@@H](O[C@H]2C[C@@](C)(OC)[C@@H](O)[C@H](C)O2)[C@H](C)[C@@H](O[C@@H]2O[C@H](C)C[C@H](N(C)C)[C@H]2O)[C@](C)(O)C[C@@H](C)CN(C)[C@H](C)[C@@H](O)[C@]1(C)O [Azithromycin]	4 (≈ 5.34 µM)	0.063 (≈ 0.0841 µM)	16	4 fold	4 fold	16	64	32 fold	32 fold	64	0.031 (≈ 0.0414 µM)	0.5 (≈ 0.668 µM)	–	–	MIC ([2]; PAO1, 16 h, read-out: MIC PAO1 —): 128 µg/mL; MIC ([2]; PAO1, read-out: MIC in P. aeruginosa PAO1 cells): 171 µM; MIC [3]: 0.5 µg/mL (≈ 0.668 µM); MIC in P. aeruginosa Δ3-Pore cells ([4]; induced, plateau with increasing IPTG (FIG. 5)): 0.083 µM (≈ 0.0622 µg/mL); Accumulation of azithromycin in permeabilized PAO1-Pore and Δ3-Pore cells [5]: significantly higher than PAO1 and Δ3 cells; MIC [7]: 2 µg/mL (≈ 2.67 µM); Decrease of MIC from PAO1 cells to induced Δ3-Pore cells ([8]; FIG. 5B): more than 2000 fold; Drop in MIC in PAO1-Pore cells with increasing inducer ([8]; IPTG (FIG. 5)): 32 fold; Drop in MIC in Δ3-Pore cells with increasing inducer ([8]; IPTG (FIG. 5)): 64 fold
Virginiamycin	–	–	512	≧64 fold	≧2 fold	16	–	–	–	–	0.5	8	256	>256	–
CCCCCCCCCCCCOS(=O)(=O)[O-].[Na+] [SDS]	10000	156.3	2000	2000 fold	1 fold	1	64	≧2 fold	≧2 fold	64	5	5	10000	10000	MIC PAO1 — [13]: >10000 µg/mL; MIC PAO1 Pore [14]: 10000 µg/mL
Gentamicin	–	–	0.5	1 fold	2 fold	1	–	–	–	–	4	4	2	4	–
